Patent US9840465B2 (priority 2013, dated 2017)
Where two headings read alike, the source gives them in different places.

What was measured:
[1] = system: Influenza A/California/07/2009 (H1N1), M2 S31N; type: cell-based, Influenza A virus
[2] = system: A/PR/8/34 (H1N1), M2 V27T/S31N; type: cell-based, Influenza A virus
[3] = system: A/WS/33 (H1N1), M2 S31N; type: cell-based, Influenza A virus
[4] = system: Influenza A/California/07/2009 (H1N1), M2 S31N; details: cited from earlier work
[5] = target: M2 22-62 (S31N) (Influenza A virus, UniProt P0DOF5, C50S/S31N); type: biochemical
[6] = system: Influenza A/California/07/2009 (H1N1); type: cell-based, Influenza A virus; details: read-out: EC50 against the passage 12 7-resistant mutant
[7] = system: Influenza A/Victoria/3/75 (H3N2); assay: microbe, parasite or virus in culture; type: cell-based
[8] = read-out: EC50 A/Calif/07/09 (H1N1)
[9] = read-out: EC50s of the drug components of the incubation mixture

Structure (SMILES)	EC50 [1, 8] [µM]	EC50 ([1]; read-out: EC50 ± SE (μM) (N)) [µM]	EC50 [2] [µM]	EC50 [3] [µM]	also measured
CC(N)C12CC3CC(CC(C3)C1)C2 (stereo not shown) [Rimantadine (2), Rimantadine, reference compound]	110	106	3.3	310	activity against H1N1 (2009) (known) [4]: inactive
CCCCCCC1(N)C2CC3CC(C2)CC1C3 (stereo not shown) [Compound 101, 2-n-hexyl-tricyclo[3.3.1.1^3,7]decan-2-amine]	0.13		0.07	13	inhibition of the A/WS/33 strain (in words) [3]: some inhibitory effect
CC1CN(C)C2(C1)C1CC3CC(C1)CC2C3 (stereo not shown) [Compound 345, 1,4-dimethylspiro[pyrrolidine-2,2′-tricyclo [3.3.1.1^3,7]decane]]	7				
NCCN1CCCC12C1CC3CC(C1)CC2C3 (stereo not shown) [Compound 12, 2-((1r,3r,5r,7r)-spiro[adamantane-2,2′-pyrrolidin]-1′-yl)ethan-1-amine]		2.66			H^+ Uptake Rate ± SD (%) (N) [5]: 11 ± 18 (4) %
NC1(C23CC4CC(CC(C4)C2)C3)CCCC1 [Compound 9]		0.79			EC50 [1, 9]: 0.36 µM; H^+ Uptake Rate ± SD (%) (N) [5]: 11 ± 25 (3) %; EC50 [6]: 22 ± 2 µM
O=C1CCC2(N1)C1CC3CC(C1)CC2C3 (stereo not shown) [Compound 3]		15.6			
CC1CCNC12C1CC3CC(C1)CC2C3 (stereo not shown) [Compound 343, 3-Methylspiro[pyrrolidine-2,2′-tricyclo[3.3.1.1^3,7]decane]]	7.2				
CC12CC3CC(CC(C3)C13CCCN3)C2 [Compound 11, (1r,3s,5R,7S)-1-methylspiro[adamantane-2,2′-pyrrolidine]]		36			H^+ Uptake Rate ± SD (%) (N) [5]: 17 ± 8.7 (6) %
NC1(C23CC4CC(CC(C4)C2)C3)CCCCC1 [Compound 13, 1-((3r,5r,7r)-adamantan-1-yl)cyclohexan-1-amine]		3.62			EC50 [6]: 10 ± 2 µM
CC1CCC2(N1)C1CC3CC(C1)CC2C3 (stereo not shown) [Compound 341, 5-methylspiro[pyrrolidine-2,2′-tricyclo[3.3.1.1^3,7]decane]]	34				efficacy against A/California/07/2009 (in words) [1]: less effective than the others
CC(C)CC1(N)C2CC3CC(C2)CC1C3 (stereo not shown) [Compound 18, (1r,3r,5r,7r)-2-isobutyladamantan-2-amine]	8		0.3	210	
CCCC1(N)C2CC3CC(C2)CC1C3 (stereo not shown) [Compound 7]	4.7	4.71	0.5	390	H^+ Uptake Rate ± SD (%) (N) [5]: 24 ± 17 (6) %
CCC1CCC2(N1)C1CC3CC(C1)CC2C3 (stereo not shown) [Compound 347, 5-ethylspiro[pyrrolidine-2,2′-tricyclo[3.3.1.1^3,7]decane]]	8.7				
C1CCC(C23CC4CC(CC(C4)C2)C3)NC1 (stereo not shown) [Compound 10]		7			EC50 [1, 9]: 2.8 µM
NC12CC3CC(CC(C3)C1)C2 [Amantadine (1), Amantadine, reference compound]	240	242	24	24	H^+ Uptake Rate ± SD (%) (N) [5]: 77 ± 29 (8) %; EC50 ± S.E. (μM) [7]: Inactive; Resistance development [7]: complete during a single 3-4 day passage; EC50 ([7]; Influenza A virus, H3N2, read-out: EC50 ± S.E. (μM)): 2.8 ± 0.3 µM; activity against H1N1 (2009) (known) [4]: inactive
CC1CCC2(C3CC4CC(C3)CC2C4)N1C (stereo not shown) [Compound 344, 1,5-Dimethylspiro[pyrrolidine-2,2′-tricyclo[3.3.1.1^3,7]decane]]	7.7				
C1CNC(C23CC4CC(CC(C4)C2)C3)C1 (stereo not shown) [Compound 8]		15.4			H^+ Uptake Rate ± SD (%) (N) [5]: 12 ± 13 (5) %
NC1(c2ccccc2)C2CC3CC(C2)CC1C3 (stereo not shown) [Compound 19, (1r,3r,5r,7r)-2-phenyladamantan-2-amine]	21		< 0.3	86	EC50 [1, 9]: 9.2 µM
CCCCC1(N)C2CC3CC(C2)CC1C3 (stereo not shown) [Compound 17, (1r,3r,5r,7r)-2-butyladamantan-2-amine]	8.5		0.3	355	
C1CCC2(NC1)C1CC3CC(C1)CC2C3 (stereo not shown) [Compound 6]		19.8			H^+ Uptake Rate ± SD (%) (N) [5]: 1.3 ± 5.7 (6) %
CC1CNC2(C1)C1CC3CC(C1)CC2C3 (stereo not shown) [Compound 342, 4-Methylspiro[pyrrolidine-2,2′-tricyclo[3.3.1.1^3,7]decane]]	9.5				
NC1(Cc2ccccc2)C2CC3CC(C2)CC1C3 (stereo not shown) [Compound 20, (1r,3r,5r,7r)-2-benzyladamantan-2-amine]	8.6		1.2	280	
CC(C)(N)C12CC3CC(CC(C3)C1)C2 [Compound 259, 2-(adamantan-1-yl)propan-2-amine]	24		< 0.2	300	
CC1CCN(C)C12C1CC3CC(C1)CC2C3 (stereo not shown) [Compound 346, 1,3-dimethylspiro[pyrrolidine-2,2′-tricyclo [3.3.1.1^3,7]decane]]	10.2				
